# Tests used:
# [1] = test system: ACHN, SN12C, Caki-2, TK-10, and UO-31 renal carcinoma cells; experiment: Sensitization of renal carcinoma cell lines to TRAIL apoptosis, comparison with IAP and Bcl-2 antagonists; assay type: cell-based, human; details: 5 renal carcinomas; compared to Birinapant, GDC-0152, LCL-161, ABT-199 and ABT-737
# Experimental: ACHN, S[…], Caki-2, TK-10, and UO-31 cells were treated with compound 1, the IAP antagonists Birinapant, GDC-0152, or LCL-161 and the Bcl-2 antagonists ABT-199 and ABT-737 in the presence and absence of TRAIL.
# [2] = test system: LNCaP prostate cancer cells; experiment: Growth inhibition of LNCaP prostate cancer cells; assay type: cell-based; details: Homo sapiens
# Experimental: (§1) LNCaP and 22Rv1 prostate cancer cells and human fibroblasts HFF cells were treated with compounds 1, 2, 3, and 4.
# [3] = test system: cFLIP; experiment: cFLIP levels in 22Rv1 prostate cancer cells (Western blot); assay type: cell-based; details: 22Rv1 cells; 125 nM, 250 nM, or 500 nM
# Experimental: 22Rv1 prostate cancer cells were treated with 125 nM, 250 nM, or 500 nM of compounds 1 or 3.
# [4] = test system: 22Rv1 prostate cancer cells; experiment: Growth inhibition of 22Rv1 prostate cancer cells; assay type: cell-based; details: Homo sapiens
# Experimental: as §1
# [5] = test system: 888, 1383, and Baldwin renal melanoma cells; experiment: Sensitization of 888, 1383 and Baldwin melanoma cells to TRAIL apoptosis; assay type: cell-based, human; details: 888, 1383, Baldwin melanoma cells; compared to Birinapant or ABT-737
# Experimental: 888, 1383, and Baldwin renal melanoma cells were treated with compound 1 of compound 3, the Birinapant, or ABT-737 in the presence and absence of TRAIL.
# [6] = test system: cFLIP; experiment: cFLIP levels in LNCaP prostate cancer cells (Western blot); assay type: cell-based; details: 125 nM, 250 nM, or 500 nM
# Experimental: LNCaP prostate cancer cells were treated with 125 nM, 250 nM, or 500 nM of compounds 1 or 3.
# [7] = test system: human fibroblasts HFF cells; experiment: Growth inhibition of human fibroblasts HFF cells; assay type: cell-based
# Experimental: as §1
# [8] = test system: SK-MEL-28 melanoma cells; experiment: Killing of SK-MEL-28 melanoma cells by activated human T cells (crystal violet); assay type: cell-based; details: PCC 500 nM 24 h before T cells
# Experimental: 6 well costar plates were precoated with anti-CD3 (1 ug/ml) in PBS overnight at 4° C. Wells were washed with PBS then blocked with RPMI+10% FBS for 30 min before adding anti-CD28 (0.2 ug/ml) and purified T cells.
# T cells were isolated from human PBMCs using Pan T cell isolation kit (Miltenyi Biotech) as per manufacturers protocol, added to the costar plates and incubated at 37° C. 24 hours later activated T cells were used as effectors.
# SK-MEL-28 cells (200,000) were added to costar 6 plates. After 24 h PCC (500 nM) or control DMSO was added, followed 24 h later by addition of activated T cells at different target to effector ratios. After a further 24 hours plates were washed and adherent melanoma cells were fixed with methanol and stained with crystal violet.
# SK-MEL-28 melanoma cells were treated with media, compound 1, or compound 1+α-TNFα and then incubated with the activated human T cells.
# [9] = test system: cFLIP; experiment: cFLIP reduction in ACHN cells (Western blotting); assay type: cell-based, human; details: ACHN renal carcinoma cells; 125, 250, 500 nM; 24 h; compared with compound 1
# Experimental: This example the effect of compounds 1 and 3 on the reduction of cFLIP in ACHN human carcinoma cells as a function of concentration after 24 exposure to the compounds.
# ACHN human renal carcinoma cells were treated with 125 nM, 250 nM, and 500 nM of compounds 1 and 3. After 24 h exposure to the compounds, Western blotting was performed to separate FLIPL and FLIPS, and the results shown in FIG. 3.
# [10] = test system: cFLIP; experiment: cFLIP reduction in M14 melanoma cells (Western blotting); assay type: cell-based, human; details: 0-500 nM, 24 h, compared with compound 1
# Experimental: M14 human melanoma cells were treated with 0, 31.25, 62.5, 125, 250, or 500 nM of compounds 1 and 3. After 24 h, Western blotting was performed to separate cFLIPL, cFLIPS, and GAPDH.
# [11] = test system: B16F10 melanoma; experiment: B16F10 melanoma xenograft model in C57B/6 mice; assay type: in vivo; details: intra-tumor twice a week for 3 weeks; versus vehicle and compound 1
# Experimental: C57B/6 mice were injected with 5×10^5 B16F10 melanoma cells s.c. Tumors were allowed to grow 8-10 days and then vehicle, compound 1, or compound 3 were injected intra-tumor twice a week for 3 weeks. Tumor growth was monitored until endpoint.
SMILES,sensitization of TRAIL apoptosis [1],IC50 [2],cFLIP levels [3],IC50 [4],sensitization of TRAIL apoptosis [5],cFLIP levels [6],IC50 [7],killing of human melanoma cells by activated T cells [8],cFLIP reduction [9],cFLIP reduction [10],tumor volume [11]
"CC(=O)OC[C@]12CC[C@H]3[C@@H](C[C@H]4O[C@]45CC=CC(=O)[C@]35C)[C@]1(O)CC[C@@]2(O)[C@@](C)(O)[C@H]1CC(C)=C(C)C(=O)O1 [Compound 1, Physachenolide C]",superior results,37 ± 2 nM,reduction of cFLIP levels,48 ± 2 nM,superior results,reduction of cFLIP levels,> 2000 nM,enhanced the killing,–,–,–
COc1ccc(C(=O)OC[C@]23CC[C@H]4[C@@H](C[C@H]5O[C@]56CC=CC(=O)[C@]46C)[C@]2(O)CC[C@@]3(O)[C@@](C)(O)[C@H]2CC(C)=C(C)C(=O)O2)cc1 [Compound 2],–,18 ± 2 nM,–,16 ± 4 nM,–,–,938 ± 10 nM,–,–,–,–
"CC1=C(C)C(=O)O[C@@H]([C@](C)(O)[C@]2(O)CC[C@@]3(O)[C@@H]4C[C@H]5O[C@]56CC=CC(=O)[C@]6(C)[C@H]4CC[C@]23COC(=O)c2ccc(C)o2)C1 [Compound 3, withaperuvin E]",–,14 ± 1 nM,reduction of cFLIP levels,10 ± 2 nM,superior results,reduction of cFLIP levels,892 ± 119 nM,–,elevated activity over compound 1,elevated activity over compound 1,lowest
CC1=C(C)C(=O)O[C@@H]([C@](C)(O)[C@]2(O)CC[C@@]3(O)[C@@H]4C[C@H]5O[C@]56CC=CC(=O)[C@]6(C)[C@H]4CC[C@]23COC(=O)c2ccc(C)nc2)C1 [Compound 4],–,17 ± 8 nM,–,17 ± 1 nM,–,–,945 ± 92 nM,–,–,–,–
